Assay results from patent US7368582B2, “Amidomethyl-substituted 2-(4-sulfonylamino)-3-hydroxy-3,4-dihydro-2H-chromen-6-yl compounds, a process and intermediates for their production, and pharmaceutical compositions containing them” (Solvay Pharmaceuticals GmbH, priority 2003, dated 2008).

Experiments:
[1] = test system: left atrium of rats' hearts; assay: Functional refractory period prolongation on isolated left atria of rats' hearts in vitro; parameters: species or system rat (Sprague-Dawley); settings: 10 μM
Protocol: 3. Investigation of the Functional Effectiveness of the Substances on the Atrium of Rats' Hearts in Vitro
In this test model it is determined to what extent the Kv 1.5-blocking substances of Formula I result in a prolongation of the functional refractory period in the left atrium of rats. The refractory period is the minimum possible elapsed time between the basic stimulus and additional stimulus in which a renewed contraction can be triggered. The extent of the prolongation of the functional refractory period is a measurement of the antiarrhythmic effectiveness of the substances according to the invention. The functional refractory period is determined by testing on the electrically stimulated preparation at what elapsed time from the preceding contraction a renewed contraction can be triggered by additional electrical stimuli.
The hearts were removed from freshly sacrificed rats (Sprague-Dawley, Charles-River, Germany). The left atria were isolated and fastened to force transducers in a temperature-controlled (30° C.), gasified (O2 95%, CO2 5%) organ bath which was filled with modified Tyrode solution (all values in mM: NaCl 137; KCl 2.7; CaCl2 1.8; MgCl2 0.8; NaHCO3 11.9; NaH2PO4 0.6; glucose 5). In order to trigger regular contractions, the preparations were electrically stimulated (rectangular pulses, pulse magnitude 3.5× threshold stimulus, pulse width 1.5 ms, frequency 1 Hz). Initially, the initial value of the functional refractory period was determined by applying extra pulses in addition to the basic stimulus, the elapsed time from the preceding basic stimulus being shortened until no further additional contraction could be triggered. Then the cumulative addition of increasing concentrations (0.1-10 μM) of the substances of Formula I took place at intervals of 20 min. each, the refractory period being determined again in each case 18 min. after the addition had taken place. Before the measurement, stock solutions of the test substances (3.2 and 0.32 mM in 100% DMSO) were prepared. In order to achieve the desired final concentrations of the substances (0.1-10 μM) in the organ bath (volume 100 ml), corresponding volumes of these stock solutions were then poured into the organ bath.
In each case the prolongation of the functional refractory period (FRP) in the left atrium of the rats' hearts in milliseconds observed after the addition of 10 μM of the respective substance of Formula I to the atrial preparations was given as characteristic variable.

Kv 1.3-potassium channel = target: T1, Kv 1.3-potassium channel (Homo sapiens, UniProt P22001); assay: In-vitro Kv 1.3-potassium channel-blocking effect (membrane potential-sensitive fluorescent dye in transfected CHO cells); type: cell-based; settings: 10 μM test substance; CHO cells transfected with Kv 1.3; relative to reference margatoxin
T1 construct: expressed in transfected cells; host or cells: CHO cells, stably transfected with the Kv 1.3 plasmid using DMRIE-C
T1 sequence (P22001 whole entry): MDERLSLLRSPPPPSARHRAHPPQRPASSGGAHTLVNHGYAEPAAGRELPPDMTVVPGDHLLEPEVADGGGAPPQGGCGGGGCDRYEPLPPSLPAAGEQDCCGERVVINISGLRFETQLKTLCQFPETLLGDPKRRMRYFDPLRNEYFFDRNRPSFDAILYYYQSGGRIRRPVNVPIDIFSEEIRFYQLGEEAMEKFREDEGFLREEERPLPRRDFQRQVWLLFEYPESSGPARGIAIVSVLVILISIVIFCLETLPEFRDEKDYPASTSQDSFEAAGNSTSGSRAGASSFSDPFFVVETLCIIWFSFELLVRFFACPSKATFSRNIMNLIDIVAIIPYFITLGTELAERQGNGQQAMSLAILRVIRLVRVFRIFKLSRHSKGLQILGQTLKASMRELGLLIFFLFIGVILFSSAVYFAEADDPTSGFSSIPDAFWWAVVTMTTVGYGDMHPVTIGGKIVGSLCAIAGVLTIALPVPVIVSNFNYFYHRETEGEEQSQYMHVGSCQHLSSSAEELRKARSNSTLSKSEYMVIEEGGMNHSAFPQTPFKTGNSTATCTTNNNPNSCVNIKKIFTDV
Source text: 2. In-Vitro Investigation of the Kv 1.3-Potassium Channel-Blocking Effect of the Substances
In this test model, known oocytes of the Chinese hamster (═CHO) are used which are stably transfected with the Kv 1.3-potassium channel. The blockade of the cell-inherent Kv 1.3-potassium channel activity in the transfected cells is accompanied by a positive shift in the membrane potential from approx. −40 mV to −30 mV, whereas in the wild-type CHO cells investigated in parallel no significant shift in the membrane potential is triggered. A change in the membrane potential is thus connected to the reduction in the Kv 1.3-potassium channel activity. By blocking the Kv 1.3-potassium channels e.g. with substances of Formula I and the resulting change in the membrane potential, an accumulation of a membrane potential-sensitive fluorescent dye in intracellular compartments of the oocytes and ultimately increasing fluorescence occurs. The change in the membrane potential of the oocytes is therefore measured indirectly via the increase in fluorescence of the membrane potential-senstive dyes.
The cells were transfected with the Kv 1.3 plasmid in known manner with a commercially obtainable transfection reagent (DMRIE-C from Gibco BRL, Germany). The successful transfection was verified by immunofluorescence and by “patch-clamp” investigations of the potassium ion current. The fluorescence measurements were performed on a Tecan Safire fluorescence reader from Tecan, Germany. In each case, the increase in the fluorescent intensity caused by the blockade of the Kv 1.3-potassium channels in the oocytes with substances of Formula I in a concentration of 10 μM was determined as characteristic variable. The increase in the fluorescent intensity was given in each case in percent (%) compared with an increase in the fluorescent intensity caused by the reference substance margatoxin. Margatoxin is known as a selective Kv 1.3-potassium channel blocker (see e.g. M. Garcia-Calvo et al., J. Biol. Chem. 268 (1993) 18866-18874).

ventricle of guinea pigs = assay: Functional effectiveness on guinea-pig hearts in vivo (ERP, QT, QRS, systolic blood pressure); parameters: species or system guinea pig (Dunkin-Hartley); settings: 1 min. after 10 μmole/kg i.v.; for QRS / QT / syst. blood pressure (change): guinea pigs; for syst. blood pressure (change): minus effects due to the vehicle, negative values indicate reduction; for ERP: ventricle of guinea pigs, negative values indicate shortening
Source text: 4. Investigation of the Functional Effectiveness of the Substances on Guinea-Pig Hearts in Vivo
In the test model shown below, it was shown that the substances according to the invention at most have slight undesirable proarrhythmic effects on repolarization in the ventricle. To this end, the influence of the compounds of Formula I on the effective refractory period (ERP) and other influencing variables on guinea-pig hearts in vivo were investigated. In this test model, non-selective potassium channel blockers not in accordance with the invention, which also block HERG and/or KvLQT1 channels, result in undesirable prolongation of the ERP and the QT time on an electrocardiogram (═ECG). The QT time is likewise a measurement of the repolarization in the heart. Prolongations of both the ERP and the QT time, respectively, which are due to the substances were independently interpreted as indications of the risk of the occurrence of undesirable torsade-de-pointes arrhythmias. Furthermore, the QRS interval also was determined in each case from the ECG as a measurement of the ventricular rate of spread of stimulus. Even a prolongation of the QRS interval caused by a test substance is connected with an increased risk of undesirable pro-arrhythmic side-effects. Therefore in this test model the lack of an ERP and QT time prolongation signifies a low risk, but the occurrence of a relevant ERP and QT prolongation on the other hand signifies an elevated risk of undesirable pro-arrhythmic effects. Also the lack of a prolongation of the QRS interval which is due to the substances due to the substances of Formula I investigated indicates a low risk of undesirable pro-arrhythmic side-effects, since lack of QRS prolongation indicates an undisturbed spread of stimulus in the ventricle. Conversely, a QRS prolongation, which is typically triggered by Class I antiarrhythmic drugs indicates slowing of the conduction rate and may promote the occurrence of ventricular tachycardias to ventricular fibrillation.
Male guinea pigs (Dunkin-Hartley from Charles River) were anaesthetized (ketamine 50 mg/kg, xylazine 10 mg/kg) and each of them was provided with a venous access via one jugular vein for administration of compounds of Formula I or a vehicle. A bipolar stimulation catheter was fed into the right ventricle of the guinea pigs via the other jugular vein (stimulation frequency 5 Hz). The arterial blood pressure was measured by a catheter located in the carotid artery which was connected to a Statham pressure transducer. The ECG was recorded via needle electrodes. The measured data were digitized via an analog/digital converter, recorded on a computer with suitable software (Ponemah Physiology Platform from Gould, USA) and printed out in parallel on a multichannel printer. After an equilibration period of 45 min., increasing doses of the compounds of Formula I or of the vehicle were administered intravenously (=i.v.) to the guinea pigs at 12-minute intervals. Before the first administration and in each case one minute after administration of increasing doses (0.1−max. 30 μmole/kg) of the substances of Formula I, the effective refractory period was measured. For this, after five normal stimuli in each case an additional pulse was applied and the elapsed time thereof from the preceding pulse was increased until a heart action was triggered. The observed time interval corresponds to the ERP of the ventricular myocardium.
In order to detect possible effects of the test substances on the blood pressure, in the same test model after each administration of substance the systolic and diastolic blood pressure was determined and compared with the previous blood-pressure level. The parameters were recorded automatically 1 and 8 min. after each administration of substance.
Only statistically significant effects were listed, with a t-test with a significance limit of P<0.05 being used for the statistical testing.

[2] = test system: hearts of anaesthetised cats; assay: Atrial and ventricular fibrillation threshold in anaesthetised cats in vivo; parameters: species or system cat; settings: anaesthetized cats, dose 30 μmol/kg i.v.
Source text: 5. Investigation of the Functional Effectiveness of the Substances on the Hearts of Anaesthetised Cats in Vivo
In the test model shown below, it was shown that the substances according to the invention at most have a marked atrial-selective effect on the heart. After administration of the substances according to the invention, a significant increase in the atrial fibrillation threshold—i.e. the current intensity at which atrial fibrillation occurs—was observed. At the same time, on the other hand, the ventricular fibrillation threshold is influenced only minimally.
Living cats were anaesthetised with chloralose/urethane (50/300 mg/kg i.v.) and were ventilated with ambient air. Then, following thoracotomy, stimulating electrodes were attached to the right atrium and the ventricle. The atrial and ventricular fibrillation threshold was determined in known manner by administration of rectangular pulses of increasing current intensity until atrial or ventricular fibrillation occurred (for performance see in detail: Br. J. Pharmac. 17 (1961) 167; Hdb. exp. Pharmacol. XVI/3 (1975) 131; Pharmacol. Res. 25 Suppl. 2 (1992) 156). The test substances of Formula I were dissolved in propylene glycol (80%) and administered intravenously in increasing doses (5-30 μmol/kg). Atrial and ventricular fibrillation thresholds were then determined at 5-minute intervals in known manner after the addition of the respective dose. The increase in the respective fibrillation threshold due to the substances investigated was expressed in percent of the value before administration of substance, i.e. a doubling of the fibrillation threshold corresponds to an increase of 100%.

[3] = percent of value before administration

SMILES	FRP prolongation [1] [ms]	Increase in the fluorescent intensity (% margatoxin) (Kv 1.3-potassium channel)	QRS (ventricle of guinea pigs)	QT (ventricle of guinea pigs)	syst. blood pressure (change) (ventricle of guinea pigs)	ERP (ventricle of guinea pigs)	Selectivity factor (AFT:VFT) [2]	AFT (increase in the atrial fibrillation threshold) [2, 3] [%]	VFT (increase in the ventricular fibrillation threshold) [2, 3] [%]
CCc1ccc(S(=O)(=O)N[C@@H]2c3cc(CC(=O)NCc4ccccc4)ccc3OC(C)(C)[C@H]2O)cc1 [Example 11]	24	99	n.s.	n.s.	n.s.	n.s.	–	–	–
CCc1ccc(S(=O)(=O)NC2c3cc(CC(=O)NC4CCCc5ccccc54)ccc3OC(C)(C)C2O)cc1 (centres unmarked) [Example 1, 2-(4-{[(4-Ethylphenyl)sulfonyl]amino}-3-hydroxy-2,2-dimethyl-3,4-dihydro-2H-chromen-6-yl)-N-1,2,3,4-tetrahydronaphth-1-yl acetamide]	15	–	n.s.	n.s.	n.s.	n.s.	3	66	22
